Patent US11666561B2, “Compounds for use in regulating follicle maturation” (AARHUS UNIVERSITET, priority 2017, dated 2023)
Entries after “also recorded” stand apart in the source; their conditions may differ.

Tested on: primordial-to-primary follicle transition
Assay: In vitro organ culture of mouse ovaries with compound, H&E histology and counting of primordial, primary and secondary follicles
Protocol: Ovaries obtained from mice were washed twice with culture medium. Antagonists or agonists to be tested were dissolved in suitable solvents and added to the medium. As a control medium comprising solvent without the antagonist or agonist was used. One of the ovaries was cultured in a control medium and another was cultured with the antagonist or agonist. The tested antagonists or agonists and their concentrations are outlined in table 2.
Ovaries were incubated with antagonist at 37° C. and 5% CO2 for 24 and 96 hours, respectively (see table 3).
Cultures ovaries were fixed, embedded in paraffin and sliced microscopy. The sectioned ovaries were stained with hematoxylin and eosin (H&E) to visualize the morphology of the ovary by microscopy.
The number of primordial, primary and secondary follicles was determined, and it was determined whether the antagonist or agonist was capable of regulating folliculogenesis.
C57BL/6j×CBA F1 hybrid mice (Janvier Labs, France) were housed and bred in the animal facilities at Department of Biomedicine, Aarhus University. Animals were housed in a 12:12 h controlled light-dark environment and were provided with food and water ad libitum. 7-day-old female pups were used for the study.
Pups were sacrificed and ovaries were excised. Using a stereomicroscope MZ75 (Leica Microsystems, Germany), excess tissue was removed. During the dissection, ovaries were kept at 37° C. in culture medium: aMEM (Thermo Fisher) supplemented with 10% FBS (Thermo Fisher), 100 mIU/mL of FSH (Sigma-Aldrich), 100 IU/mL penicillin (Thermo Fisher), 100 μg/mL streptomycin (Thermo Fisher) and 1% Insulin-Transferrin-Selenium (Thermo Fisher). Isolated ovaries were transferred into well inserts (PET membrane ThinCert, 0.4 μm-pore size; Greiner bio-one) in 24-well plates (Tissue culture treated, cell culture plates; Costar). 200-300 μL of culture medium was added to the well below the insert and up to two ovaries were placed on the membrane of each insert. The culture medium was supplemented with different concentrations of the tested compounds; bpV(HOpic) (Sigma-Aldrich), Temsirolimus (Sigma-Aldrich), Ketotifen (Sigma-Aldrich), 3PO (Sigma-Aldrich), Dorsomorphin (Sigma-Aldrich), AICAR (Sigma-Aldrich), NCG (Sigma-Aldrich), and Dyphylline (Cayman Chemical). Up to six wells in the 24-well plate were used for inserts. Sterile dH2O was added to the rest of the wells to ensure humidity and reduce evaporation. The ovaries were cultured at 37° C., 5% CO2 for four days. 150 μL of medium was replaced every other day with fresh culture medium.
Ovaries kept in organ culture for four days were fixed for 24 hours in 4% paraformaldehyde solution at 4° C. After fixation, ovaries were dehydrated in ethanol series using 70%, 96% and 99.9% ethanol. Xylene was used as clearing agent before the ovaries were infiltrated in paraffin wax. 5 μm-sections of samples in paraffin were cut using a microtome (Cut 6062, SLEE medical, Germany). Paraffin sections were mounted on glass slides, paraffin was melted at 60° C., and the samples were stained with hematoxylin and eosin (using standard protocols).
The samples were deparaffinized by incubating in xylene for 2×15 min. and subsequently rehydrated in series of ethanol; 3×2 min. in 99.9% ethanol, 2 min. in 96% ethanol, and 2 min. in 70% ethanol. The samples were then rinsed in dH2O, stained in hematoxylin for 40 sec., rinsed in dH2O for 5 min., and stained in eosin for 46 sec. The samples were dehydrated in ethanol: 2×2 min. in 96% ethanol, 2×2 min in 99.9% ethanol, and finally cleared up in xylene for at least 30 min before mounting the samples using Eukitt mounting medium (Sigma-Aldrich) and cover glass.
The number of follicles at each developmental stage was counted using an inverted research microscope (DM14000B, Leica Microsystems, Germany). The follicles of every 3rd to 4th section of each ovary were counted and the distribution of follicles in the different stages in percentage was determined.

COc1ccc(Cl)c(Nc2nc3ccccc3nc2NS(=O)(=O)c2cccc(NC(=O)C(C)(C)N)c2)c1 [XI147, 2-amino-N-[3-({3-[(2-chloro-5-methoxyphenyl)amino]quinoxalin-2-yl}sulfamoyl)phenyl]-2-m]
Effect (Table 1, marked (ongoing)): promotes
Effect (Table 2, marked (ongoing)): promotes

NC(=O)c1ncn([C@@H]2O[C@H](CO)[C@@H](O)[C@H]2O)c1N [AICAR, 5-aminoimidazole-4-carboxamide-1β-D-ribofuranoside]
follicles (stage not given; activation of primordial follicles inhibited) (0.5 mM AICAR (n=1), data not shown): 83.83±3.06%
primary follicles (1 mM AICAR, four days): 10.82±4.98%
primordial follicles (1 mM AICAR, four days): 86.02±5.84%
secondary follicles (1 mM AICAR, four days): 3.0±3.09%
health of growing follicles in treated ovaries (AICAR 0.1-1 mM, four days): growing follicles within the ovary tended to appear unhealthy; also recorded: too harsh for the growing follicles
Effect (Table 1, effect with a figure cited): promotes
Effect (Table 2, effect with a figure cited): promotes
effect on primordial-to-primary follicle transition / primordial follicle activation (in vitro cultured mouse ovaries, concentration not given): suppress the primordial-to-primary follicle transition

B1: BI 836845: humanised IgG1 monoclonal antibody that binds to and neutralises IGF-1 and IGF-2 (antibody, chains of the INN, looked up, V domains shown)
VH: QVELVESGGGLVQPGGSLRLSCAASGFTFTSYWMSWVRQAPGKGLELVSSITSYGSFTYYADSVKGRFTISRDNSKNTLYLQMNSLRAEDTAVYYCARNMYTHFDSWGQGTLVTVSS
VL: DIVLTQPPSVSGAPGQRVTISCSGSSSNIGSNSVSWYQQLPGTAPKLLIYDNSKRPSGVPDRFSGSKSGTSASLAITGLQSEDEADYYCQSRDTYGYYWVFGGGTKLTVL
Effect (Table 1, marked (ongoing)): promotes
Effect (Table 2, marked (ongoing)): promotes

B2: MM-141: tetravalent bispecific antibody targeting IGF-1 receptor and ERBB3 (antibody, chains of the INN, looked up, V domains shown)
VH: EVQLLQSGGGLVQPGGSLRLSCAASGFMFSRYPMHWVRQAPGKGLEWVGSISGSGGATPYADSVKGRFTISRDNSKNTLYLQMNSLRAEDTAVYYCAKDFYQILTGNAFDYWGQGTTVTVSS
VL: DIQMTQSPSSLSASLGDRVTITCRASQGISSYLAWYQQKPGKAPKLLIYAKSTLQSGVPSRFSGSGSGTDFTLTISSLQPEDSATYYCQQYWTFPLTFGGGTKVEIK
VH2: QVQLVQSGGGLVQPGGSLRLSCAASGFTFDDYAMHWVRQAPGKGLEWVAGISWDSGSTGYADSVKGRFTISRDNAKNSLYLQMNSLRAEDTALYYCARDLGAYQWVEGFDYWGQGTLVTVSS
VL2: SYELTQDPAVSVALGQTVRITCQGDSLRSYYASWYQQKPGQAPVLVIYGKNNRPSGIPDRFSGSTSGNSASLTITGAQAEDEADYYCNSRDSPGNQWVFGGGTKVTVL
Effect (Table 1, marked (ongoing)): promotes
Effect (Table 2, marked (ongoing)): promotes
